# Columns and labels:
# [1] = 20 clinical studies, more than 5000 patients; cited from earlier work
# [2] = Inventor's clinical experience: CBS in patients with severe flatus passage and gastrointestinal discomfort after nonabsorbable carbohydrates; format: in vivo, human; conditions: six patients; CBS 125 mg, 1 or 2 capsules per day or twice a day for one to two days
# Experimental: (§1) The inventor has specific clinical experience with the use of CBS. Six patients who had episodic both severe flatus passage and gastrointestinal discomfort after the consumption of large quantities of nonabsorbable carbohydrates were treated with CBS obtained from a compounding pharmacy. […] A single dose of CBS 125 mg was administered to a dog with excessive and bothersome gas following a large meal including table food.
# [3] = Single dose of CBS in a dog with excessive gas after a large meal; format: in vivo; conditions: single dose of CBS 125 mg
# Experimental: as §1
# [4] = CBS in one patient with symptomatic microscopic colitis; format: in vivo, human; conditions: CBS 600 mg three times daily for one month
# [5] = cited from earlier work
Compound,side effects compared with ranitidine alone [1],acute symptoms of excess of gas passage [2],toxic effects [2],flatus after administration [3],symptoms of microscopic colitis [4],safety of use in nonulcer dyspepsia ([5]; 480 mg of CBS daily for 8 weeks),serum bismuth levels after ingestion ([5]; up to 480 mg per day of CBS for more than 4 weeks)
CNC(=C[N+](=O)[O-])NCCSCc1ccc(CN(C)C)o1.O=C([O-])CC(O)(CC(=O)[O-])C(=O)[O-].[Bi+3] [ranitidine bismuth citrate],no different than those seen with ranitidine alone,,,,,,
colloidal bismuth subcitrate [CBS],,completely eliminated all of acute symptoms,No toxic effects were noted,Complete session of flatus,complete resolution of symptoms,safe use,safe serum bismuth levels
